Read-outs that look alike come from different tables or passages of the source.
Tests used:
[1] = system: Phosphorylation of ERK1/2 in MIA PaCa-2 (G12C) cells; test: Phospho-ERK1/2 MSD Assay; format: cell-based; conditions: Homo sapiens; 2 h compound treatment, MIA PaCa-2 cells; read-out: basal p-ERK 2 h MIA PaCa-2 (G12C) IC50 IP
Method: Phospho-ERK1/2 MSD Assay: MIA PaCa-2 (ATCC® CRL-1420™) cells were cultured in RPMI 1640 Medium (ThermoFisher Scientific 11875093) containing 1% fetal bovine serum (ThermoFisher Scientific 16000044) and 1× penicillin-streptomycin-glutamine (ThermoFisher Scientific 10378016). Sixteen hours prior to compound treatment, MIA PaCa-2 cells were seeded in 96-well cell culture plates at a density of 25,000 cells/well and incubated at 37° C., 5% C02. A compound dose-response titration was diluted in growth media, added to appropriate wells of a cell culture plate, and then incubated at 37° C., 5% C02 for 2 or 4 hours (see Table 15). Following compound treatment, cells were washed with ice-cold Dulbecco's phosphate-buffered saline, no Ca^2+or Mg^2+(ThermoFisher Scientific 14190144), and then lysed in RIPA buffer (50 mM Tris-HCl pH 7.5, 1% Igepal, 0.5% sodium deoxycholate, 150 mM NaCl, and 0.5% sodium dodecyl sulfate) containing protease inhibitors (Roche 4693132001) and phosphatase inhibitors (Roche 4906837001). Phosphorylation of ERK1/2 in compound-treated lysates was assayed using Phospho-ERK1/2 Whole Cell Lysate kits (Meso Scale Discovery K151DWD) according to the manufacturer's protocol. Assay plates were read on a Meso Scale Discovery Sector Imager 6000, and data were analyzed using a 4-parameter logistic model to calculate IC50 values.

[2] = biological target: GDP-bound KRAS protein (aa 1-169) G12D/C118A (Homo sapiens (Human), UniProt P01116, C118A/G12D); test: Coupled Nucleotide Exchange Assay (KRAS G12D); format: biochemical; conditions: 20 h compound pre-incubation; read-out: GDP KRAS G12D 20 h Coupled Exchange IC50 IP
Chain of GDP-bound KRAS protein (aa 1-169) G12D/C118A (P01116 other isoform, or with tags, fused parts or gaps G12D/C118A): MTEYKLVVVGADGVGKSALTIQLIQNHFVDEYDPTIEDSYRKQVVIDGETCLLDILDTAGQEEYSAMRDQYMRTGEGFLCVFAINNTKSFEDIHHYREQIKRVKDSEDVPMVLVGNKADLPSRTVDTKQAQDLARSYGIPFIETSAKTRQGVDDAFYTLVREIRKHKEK
Method: (§1) Coupled Nucleotide Exchange Assay: Purified GDP-bound KRAS protein (aa 1-169), containing either G12C or G12D, as well as C118A amino acid substitutions and an N-terminal His-tag, was pre-incubated in assay buffer (25 mM HEPES pH 7.4, 10 mM MgCl2, and 0.01% Triton X-100) with a compound dose-response titration for either 5 min or 20 hours (see Table 15). Following compound pre-incubation, purified SOS protein (aa 564-1049) and GTP (Roche 10106399001) were added to the assay wells and incubated for an additional 30 min. To determine the extent of inhibition of SOS-mediated nucleotide exchange, purified GST-tagged cRAF (aa 1-149), nickel chelate AlphaLISA acceptor beads (PerkinElmer AL108R), and AlphaScreen glutathione donor beads (PerkinElmer 6765302) were added to the assay wells and incubated for 10 minutes. The assay plates were then read on a PerkinElmer EnVision Multilabel Reader, using AlphaScreen® technology, and data were analyzed using a 4-parameter logistic model to calculate IC50 values.

[3] = biological target: GDP-bound KRAS protein (aa 1-169) G12C/C118A (Homo sapiens (Human), UniProt P01116, C118A/G12C); test: Coupled Nucleotide Exchange Assay (KRAS G12C); format: biochemical
Chain of GDP-bound KRAS protein (aa 1-169) G12C/C118A (P01116 other isoform, or with tags, fused parts or gaps G12C/C118A): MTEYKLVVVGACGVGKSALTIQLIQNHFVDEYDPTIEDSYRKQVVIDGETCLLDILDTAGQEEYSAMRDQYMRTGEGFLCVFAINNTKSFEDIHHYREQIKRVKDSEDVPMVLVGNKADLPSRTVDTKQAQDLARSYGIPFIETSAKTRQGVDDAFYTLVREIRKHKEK
Method: as §1

[4] = biological target: GDP-KRAS G12D (Homo sapiens, UniProt P01116, C118A/G12D); test: GDP-KRAS G12D RF-MS Assay; format: binding; conditions: 100 μM inhibitor, 20 h incubation, 2 uM KRAS G12D
Method: GDP-KRAS G12D RF-MS Assay: MS assays were performed in the following buffer: 25 mM HEPES pH 7.4, 20 mM MgCl2, 10 mM NaCl, 3% DMSO, 0.0005% CHAPS with 100 μM GDP made fresh and added to the assay buffer. The final concentration of KRAS G12D was 2 uM. Assay incubation times were 20 h and the inhibitor concentration was 100 μM. Greiner polypropylene clear V-bottom plates were used for the mass spectrometry assays. Typically, the reaction was initiated by addition of KRAS G12D to a well containing inhibitor followed by Rapidfire MS analysis. Relative % Bound values at the various incubation times were used to estimate a kobs value at 100 uM inhibitor.
RapidFire Sample Liquid handling System: The RapidFire liquid handling unit used was the RF 360 model. Solvents were delivered by Agilent 1260 Infinity pumps. The instrument control software was the Agilent RapidFire High Throughput MS-system software (v4.0.12333.14274). A single C4 Type A (Agilent technologies, G9203) SPE-cartridge was used for these experiments. A volume of 10 μL (sample loop determined) was removed from each well of a 384-well plate by using an aspiration time of 300 ms. The sample load/wash time was 6000 ms at a flow rate of 1.25 mL/min (H2O, 0.1% v/v formic acid, 0.05% v/v trifluoroacetic acid); elution time was 7000 ms (acetonitrile, 0.1% v/v formic acid, 0.05% v/v trifluoroacetic acid); re-equilibration time was 700 ms at a flow rate of 1.25 mL/min (H2O, 0.1% v/v formic acid, 0.05% v/v trifluoroacetic acid).
Mass Spectrometry: Mass spectrometric data was acquired on an Agilent 6530 quadrupole time-of-flight (ToF) MS system, operated with a dual Agilent Jet Spray (AJS) ion source, in positive ionization mode. The instrument parameters were as follows: gas temperature 350° C.; drying gas 5 L/min; nebulizer 60 psi; sheath gas 350° C.; sheath gas flow 11 L/min; capillary 3.5 kV (0.037 μA); nozzle 1.75 kV; fragmentor 200 V; skimmer 75 V; octapole RF 800 V peak-to-peak. Data was acquired at the rate of 5 spectra/s. The mass scale was calibrated using the Agilent positive ion tune mix, over the m/z range 300-3200. The instrument control software was Agilent MassHunter Workstation Data Acquisition (vB.05.01).
Mass Spectrometry Data Processing and Informatics: All data processing was performed using a HP Z620, 64-bit, 12-processor, Windows 7 PC, using a combination of Agilent MassHunter Qualitative Analysis (B.05.00) Agilent RapidFire control software (v4.0.12333.14070) and the Agilent DA Reprocessor Offline Utilities B.05.00, Build 162. The SPE-MS data acquired from the RapidFire-MS system is typically a single SPE-MS data file composed of multiple injection events. For effective charge state extraction, SPE-peak integration and subsequent MS-spectral deconvolution, the single SPE-MS data file is split into single injection events. This is typically performed off-line and achieved through the RapidFire User Interface software, using the Agilent RapidFire control software (v4.0.12333.14070) using the Convert MS Data option. Once the individual injection-event MS-data files have been produced, they are all batch processed using the DA Reprocessor Offline Utilities (B.05.00, Build 162, Agilent). For batch processing a method file was created using Agilent MassHunter Qualitative Analysis B.05.00. The details of this method file are contained within the BioConfirm Workflow and are as follows: Integrate (MS), Integrator Selection: General, smooth option selected; detector point sampling 1; start threshold 5.0; stop threshold 0.0; filtering 5 point; peak location, top. Extract (MS): Peak Spectrum Extraction (MS) within m/z 800-1400. Deconvolute (MS) Maximum Entropy: mass range 19,000-21,000 Daltons; Mass step 1.0 Da; S/N threshold 20.0; Use limited m/z range 800-1400; adduct proton; isotope peak width automatic; minimum consecutive charge states 5. […]

[5] = 5 min compound pre-incubation, read-out: GDP KRAS G12C 5 min Coupled Exchange IC50 IP
[6] = 20 h compound pre-incubation, read-out: GDP KRAS G12C 20 h Coupled Exchange IC50 IP

Structure (SMILES)	IC50 [1]	IC50 [2]	IC50 [3, 5]	IC50 [3, 6]	GDP-KRAS G12D RF-MS 100 μM 20 h Relative % Bound [4]
Cc1ccnc(C(C)C)c1-n1c(=O)nc(N2CCN(C(=O)C=O)C[C@@H]2C)c2cc(Cl)c(-c3ccccc3F)nc21 [Example 4, (S)-2-(4-(6-chloro-7-(2-fluorophenyl)-1-(2-isopropyl-4-methylpyridin-3-yl)-2-oxo-1,2-dihydropyrido[2,3-d]pyrimidin-4-yl)-3-methylpiperazin-1-yl)-2-oxoacetaldehyde]	711 nM				
COC(=O)/C=C/C(=O)N1CCN(c2nc(=O)n(-c3c(C)ccnc3C(C)C)c3nc(-c4ccccc4F)c(Cl)cc23)[C@@H](C)C1 [Example 5, Methyl (S,E)-4-(4-(6-chloro-7-(2-fluorophenyl)-1-(2-isopropyl-4-methylpyridin-3-yl)-2-oxo-1,2-dihydropyrido[2,3-d]pyrimidin-4-yl)-3-methylpiperazin-1-yl)-4-oxobut-2-enoate]	61 nM	> 250000 nM	95 nM	26 nM	
CCOC(=O)[C@@H]1O[C@H]1C(=O)N1CCN(c2nc(=O)n(-c3c(C)ccnc3C(C)C)c3nc(-c4ccccc4F)c(Cl)cc23)[C@@H](C)C1 [Example 19, Ethyl (2R,3R)-3-((S)-4-(6-chloro-7-(2-fluorophenyl)-1-(2-isopropyl-4-methylpyridin-3-yl)-2-oxo-1,2-dihydropyrido[2,3-d]pyrimidin-4-yl)-3-methylpiperazine-1-carbonyl)oxirane-2-carboxylate]	96 nM	> 250000 nM	216 nM	5 nM	3.4%

Reference: patent US20240190862A1 (AMGEN INC., priority 2019, published 2024)
